This note sets out measurements from patent US20260102407A1, “TREATMENT METHODS” (priority 2020, published 2026).

Data set [1] deals with FosB/ΔFosB. The experiment in a line: Western blot, IL-1β-inducible FosB/ΔFosB expression in HMEC-1. The format is cell-based, human. Particulars: 30 μM, 20 ng/ml IL-1β up to 4 h. How it is done:
(§1) Western blot analysis with extracts of cells treated with IL-13. HMEC-1 (80-90% confluency) were arrested in serum-free MCDB131 medium (Invitrogen, MD) without any growth factor for 48 h. Cells were treated with 30 μM compound in serum-free medium for 4 h, and incubated with 20 ng/ml IL-1β (Sigma, cat. SRE3083) in serum-free medium with the same concentration of compound for up to 4 h, unless otherwise indicated. Total protein was harvested as previously described using RIPA buffer with protease inhibitors. Proteins were resolved on 4-20% (w/v) SDS-polyacrylamide gradient gels and transferred to Immobilon-P PVDF membranes. […] Chemiluminescence was detected using the Western Lightning Chemiluminescence system and ImageQuant™ LAS 4000 biomolecular imager. Band intensity in images generated with the LAS 4000 using the same settings were quantified by NIH ImageJ.

The subject of data set [2] is HMEC-1. The experiment in a line: Endothelial network formation assay on Matrigel. It is filed as cell-based, human. How it is done:
Endothelial network formation assay. HMEC-1 (4×10^4 cells/well) in MCDB131 containing 1% FBS and compound (1 or 3 μM) or curcumin (1-40 μM) and 50 ng/ml FGF-2 were added to 96-well plates coated overnight at 4° C. with 100 μl of growth factor-reduced reconstituted basement membrane matrix (Matrigel, cat. 354230, Corning, NY). Network formation was observed over subsequent hours and photographed under 4× or 10× objective using an Olympus CKX41 microscope.

For data set [3], the system named is Brown Norway pigmented rats. The experiment in a line: Rat choroidal laser injury model, fluorescein leakage. It is filed as in vivo. The conditions noted are these: 192 μg IVT, Days 0 and 7, HRA score Days 14 and 21. An excerpt: Rat choroidal laser injury model. Male Brown Norway pigmented rats (8-14 week-old) were anesthetized by an intramuscular injection of Rompun® (xylazine)/Imalgene® (ketamine). Pupils were dilated by instillation of one drop of 0.5% tropicamide before laser burn. Six burns were created in both eyes on Day 0 by applying 170 mW of 532 nm laser light (Viridis laser, Quantel, France) on 75 μm spots around the optic nerve, between the main retinal vessel branches, for 0.1s, through the slit lamp and contact lens. Production of a bubble at the time of laser application confirmed the rupture of Bruch's membrane. Compounds in vehicle (saline containing 0.01% DMSO and 0.5% Tween 80, sonicated) in 2-5 μl were injected IVT on Days 0 and 7 under an operating microscope using a 30G needle mounted on a 100 μl Hamilton syringe. Kenacort was administered IVT into each eye on Day 0. Alternatively, aflibercept/Eylea in vehicle (saline) was injected IVT 6 times (Days 0, 3, 7, 10, 14, 17). […] After anaesthesia, 10% sodium fluorescein (250 μl/100 g body weight) was injected subcutaneously, and ocular fluorescence was recorded 10 min after dye injection. Fluorescein leakage was evaluated on Days 14 and 21 in the angiograms by two examiners masked to the study groups and graded for fluorescein intensity as follows: score 0: no leakage; 1: slightly stained; 2: moderately stained; 3: strongly stained.

In data set [4] the test system is VCAM-1. The experiment in a line: Western blot, IL-1β-inducible VCAM-1 expression in HMEC-1. The format is cell-based, human. How it is done: as §1
In data set [5] the test system is rabbits. The experiment in a line: GLP ocular tolerance study, single intravitreal injection. It is filed as in vivo, rabbit. Particulars: single intravitreal injection 10 μg/50 μl, after 28 days.
Data set [6] relates to p-p38. Description: Western blot, IL-1β-inducible p-p38 in HMEC-1. It is filed as cell-based, human. The conditions noted are these: 1-30 μM. The protocol:
as §1
On the technique in general: A western blot detects proteins with antibodies after separation by electrophoresis.

For the compound `CCOC(=O)Nc1ccc2c(c1)C(=O)N(CC)c1ccccc1O2` [BT2, (10-ethyl-11-oxo-10,11-dihydro-dibenzo[b,f][1,4]oxazepin-2-yl)-carbamic acid ethyl ester], in data set [1], the “IL-1β-inducible FosB/ΔFosB expression (Western blot)” value was “inhibited”. The endothelial network formation result in data set [2] (1 μM, after 4 h) is “abolished network formation”. In data set [2] (3 μM, 1% FBS, 50 ng/ml FGF-2, 2, 4, 6 and 24 h), the “endothelial network (tubule) formation on Matrigel” value is given as “inhibited network formation”. The “potency relative to curcumin in network formation assay” value in data set [2] (after 4 h) is recorded as over 40 fold. For the same compound, in data set [3], the “reduction of retinal permeability (fluorescein leakage)” value was about 50%. The “IL-1β-inducible VCAM-1 expression (Western blot)” value in data set [4] (30 μM, 20 ng/ml IL-1β up to 4 h) was “inhibited”. Moreover, in data set [4] (dose escalation 1-30 μM), the “inhibition of IL-1β-inducible VCAM-1, potency relative to PD98059” value is recorded as “more potently than PD98059”. The ocular tolerance entry in data set [5] is “well tolerated macroscopically and histologically”. For the same compound, the “IL-1β-inducible p-p38” value in data set [6] was “no effect”.
